{
  "source": "patent US6340689B1",
  "about": "(priority 1999, dated 2002)",
  "key": {"L. dumoffii": {"tested_on": "L. dumoffii", "assay": "organism not typed", "format": "cell-based"}, "L. micadadei": {"tested_on": "L. micadadei", "assay": "organism not typed", "format": "cell-based, L. micdadei"}, "[1]": {"tested_on": "L. pneumophila serogroup 7", "assay": "microbe, parasite or virus in culture", "format": "cell-based", "conditions": "Legionella pneumophila"}, "[2]": {"tested_on": "L. pneumophila serogroup 6", "assay": "microbe, parasite or virus in culture", "format": "cell-based", "conditions": "Legionella pneumophila"}, "[3]": {"tested_on": "L. pneumophila serogroup 2", "assay": "microbe, parasite or virus in culture", "format": "cell-based", "conditions": "Legionella pneumophila"}, "L. longbeacheae": {"tested_on": "L. longbeacheae", "assay": "organism not typed", "format": "cell-based"}, "[4]": {"tested_on": "L. pneumophila serogroup 3", "assay": "microbe, parasite or virus in culture", "format": "cell-based", "conditions": "Legionella pneumophila"}, "[5]": {"tested_on": "L. pneumophila serogroup 8, 9", "assay": "microbe, parasite or virus in culture", "format": "cell-based", "conditions": "Legionella pneumophila"}, "[6]": {"tested_on": "L. pneumophila serogroups 1-9", "format": "cell-based, Legionella pneumophila"}, "[7]": {"tested_on": "Erythromycin-susceptible Legionella spp. other than L. pneumophila", "format": "cell-based"}, "[8]": {"tested_on": "L. pneumophila serogroup 5", "assay": "microbe, parasite or virus in culture", "format": "cell-based", "conditions": "Legionella pneumophila"}, "[9]": {"tested_on": "L. dumoffii and L. longbeachae", "assay": "organism not typed", "format": "cell-based"}, "[10]": {"tested_on": "isolates of Legionella pneumophila and other Legionella spp.", "assay": "microbe, parasite or virus in culture", "format": "cell-based"}, "[11]": {"tested_on": "Erythromycin-susceptible L. pneumophila", "format": "cell-based, Legionella pneumophila"}, "[12]": {"tested_on": "L. pneumophila serogroup 4", "assay": "microbe, parasite or virus in culture", "format": "cell-based", "conditions": "Legionella pneumophila"}, "Other Legionella spp.": {"tested_on": "Other Legionella spp.", "assay": "microbe, parasite or virus in culture", "format": "cell-based"}, "[13]": {"tested_on": "L. pneumophila serogroup 1", "assay": "microbe, parasite or virus in culture", "format": "cell-based, Legionella pneumophila", "conditions": "for MIC 90%: L. pneumophila serogroup 1 (n = 85)"}},
  "data": [
    {"compound": "CO/N=C1\\CN(c2nc3c(cc2F)c(=O)c(C(=O)O)cn3C2CC2)CC1CN", "note": "(racemic) [Gemifloxacin, (R,S)-7-(3-aminomethyl-4-methoxyiminopyrrolidin-1-yl)-1-cyclopropyl-6-fluoro-4-oxo-1,4-dihydro-1,8-naphthyridine-3-carboxylic acid]", "values": [
      {"measurement": "MIC50", "setting": "L. dumoffii", "value": 0.06, "unit": "µg/mL"},
      {"measurement": "MIC90", "setting": "L. dumoffii", "value": 0.06, "unit": "µg/mL"},
      {"measurement": "MIC", "setting": "L. dumoffii; 48 h, read-out: MIC Range", "value": 0.06, "unit": "µg/mL"},
      {"measurement": "MIC50", "setting": "L. micadadei", "value": 0.016, "unit": "µg/mL"},
      {"measurement": "MIC90", "setting": "L. micadadei", "value": 0.03, "unit": "µg/mL"},
      {"measurement": "MICs fold more active than erythromycin", "setting": "L. micadadei", "value": 5, "unit": "fold"},
      {"measurement": "MIC", "setting": "L. micadadei; 48 h, read-out: MIC Range", "value": "0.008 to 0.03", "unit": "µg/mL"},
      {"measurement": "MIC50", "setting": "[1]", "value": 0.008, "unit": "µg/mL"},
      {"measurement": "MIC90", "setting": "[1]", "value": 0.016, "unit": "µg/mL"},
      {"measurement": "MIC", "setting": "[1]; 48 h, read-out: MIC Range", "value": "0.008 to 0.016", "unit": "µg/mL"},
      {"measurement": "MIC50", "setting": "[2]", "value": 0.016, "unit": "µg/mL"},
      {"measurement": "MIC90", "setting": "[2]", "value": 0.03, "unit": "µg/mL"},
      {"measurement": "MIC", "setting": "[2]; 48 h, read-out: MIC Range", "value": "0.008 to 0.03", "unit": "µg/mL"},
      {"measurement": "MIC50", "setting": "[3]", "value": 0.008, "unit": "µg/mL"},
      {"measurement": "MIC90", "setting": "[3]", "value": 0.016, "unit": "µg/mL"},
      {"measurement": "MIC", "setting": "[3]; 48 h, read-out: MIC Range", "value": "0.008 to 0.016", "unit": "µg/mL"},
      {"measurement": "MIC50", "setting": "L. longbeacheae", "value": 0.06, "unit": "µg/mL"},
      {"measurement": "MIC90", "setting": "L. longbeacheae", "value": 0.06, "unit": "µg/mL"},
      {"measurement": "MIC", "setting": "L. longbeacheae; 48 h, read-out: MIC Range", "value": "0.016 to 0.06", "unit": "µg/mL"},
      {"measurement": "MIC50", "setting": "[4]", "value": 0.016, "unit": "µg/mL"},
      {"measurement": "MIC90", "setting": "[4]", "value": 0.016, "unit": "µg/mL"},
      {"measurement": "MIC", "setting": "[4]; 48 h, read-out: MIC Range", "value": "0.008 to 0.016", "unit": "µg/mL"},
      {"measurement": "MIC50", "setting": "[5]", "value": 0.016, "unit": "µg/mL"},
      {"measurement": "MIC90", "setting": "[5]", "value": 0.016, "unit": "µg/mL"},
      {"measurement": "MIC", "setting": "[5]; 48 h, read-out: MIC Range", "value": 0.016, "unit": "µg/mL"},
      {"measurement": "MIC range", "setting": "[6]; L. pneumophila serogroups 1-9, text", "value": "0.008 to 0.06", "unit": "µg/mL"},
      {"measurement": "fold more active than erythromycin", "setting": "[6]; against L. pneumophila strains tested", "value": "5-6 fold"},
      {"measurement": "Mean PAE", "setting": "[7]; Erythromycin-susceptible Legionella spp. (n = 13), 4 × MIC, mean ± SD", "value": "2.27 ± 2", "unit": "h"},
      {"measurement": "PAE (mean PAE)", "setting": "[7]; erythromycin-susceptible Legionella spp. other than L. pneumophila, four times the MIC", "value": 2.27, "unit": "h"},
      {"measurement": "mean PAE longer than that of trovafloxacin, moxifloxacin and clarithromycin", "setting": "[7]; erythromycin-susceptible Legionella spp. other than pneumophila", "value": "≥ 1", "unit": "h"},
      {"measurement": "MIC50", "setting": "[8]", "value": 0.03, "unit": "µg/mL"},
      {"measurement": "MIC90", "setting": "[8]", "value": 0.03, "unit": "µg/mL"},
      {"measurement": "MIC", "setting": "[8]; 48 h, read-out: MIC Range", "value": "0.03 to 0.06", "unit": "µg/mL"},
      {"measurement": "MIC90", "setting": "[9]", "value": 0.06, "unit": "µg/mL"},
      {"measurement": "MIC90", "setting": "[10]", "value": 0.016, "unit": "µg/mL"},
      {"measurement": "Mean PAE", "setting": "[11]; Erythromycin-susceptible L. pneumophila (n = 15), 4 × MIC, mean ± SD", "value": "3.49 ± 3", "unit": "h"},
      {"measurement": "mean PAE longer than that of trovafloxacin, levofloxacin and clarithromycin", "setting": "[11]; erythromycin-susceptible L. pneumophila", "value": "≥ 1", "unit": "h"},
      {"measurement": "MIC50", "setting": "[12]", "value": 0.016, "unit": "µg/mL"},
      {"measurement": "MIC90", "setting": "[12]", "value": 0.03, "unit": "µg/mL"},
      {"measurement": "MIC", "setting": "[12]; 48 h, read-out: MIC Range", "value": "0.008 to 0.03", "unit": "µg/mL"},
      {"measurement": "MIC50", "setting": "Other Legionella spp.", "value": 0.03, "unit": "µg/mL"},
      {"measurement": "MIC90", "setting": "Other Legionella spp.", "value": 0.06, "unit": "µg/mL"},
      {"measurement": "MIC", "setting": "Other Legionella spp.; 48 h, read-out: MIC Range", "value": "0.016 to 0.06", "unit": "µg/mL"},
      {"measurement": "MIC 90%", "setting": "[13]", "value": "≦0.004 mg/L"},
      {"measurement": "MIC 90%", "setting": "[13]; listed as gemifloxacin", "value": 0.016, "unit": "µg/mL"},
      {"measurement": "MIC50", "setting": "[13]; Legionella pneumophila", "value": 0.016, "unit": "µg/mL"},
      {"measurement": "MIC", "setting": "[13]; Legionella pneumophila, 48 h, read-out: MIC Range", "value": "0.008 to 0.06", "unit": "µg/mL"}
    ]}
  ]
}
